In US10098878B2, “HIF-2α inhibitors for treating iron overload disorders” (The Board of Regents of the University of Texas System, priority 2014, dated 2018):
Where two headings read alike, the source gives them in different places.

Columns and labels:
786-O-Hif-Luc cells = test: Luciferase Assay; assay type: cell-based; conditions: read-out: Luciferase EC50
Method: A pool of infected cells were then selected against 2 μg/mL of puromycin (P8833, Sigma) for 10 days followed by limited dilution to select single clones.
Each concentration was tested in triplicate. After about 24 hours, luciferase activity was determined using ONE-Glo Luciferase Assay Reagent (E6110, Promega) following the manufacturer's recommended procedure. EC50 were calculated by using Dotmatics software.

786-0 cells = test: VEGF ELISA Assay; assay type: cell-based
Method: Each concentration had duplicated wells. About 20 hours later, medium was removed by suction and each well was supplied with 180 μL of growth medium. About 20 μl freshly-made 10× compound stocks were added to each well. […] The EC50 was calculated by GraphPad Prism using the dose-response-inhibition (four parameter) equation. The cell seeded plate was then subjected to CellTiter-Glo luminescence cell viability assay (Promega) by adding 50 μL of Celltiter Glo reagent into each well and shaking the plate for 8 minutes at 550 rpm (Thermomixer R, Eppendorf) then read luminescence signal in plate reader (3 second delay, 0.5 second/well integration time, Synergy 2 multi Detection Microplate reader) immediately.

[1] = target: T1, HIF-2α HIS TAG-PASB Domain (Homo sapiens, UniProt Q99814); test: HIF-2α Scintillation Proximity Assay (SPA); assay type: binding; conditions: 100 nM HIF-2α HIS TAG-PASB Domain
T1 construct: 100 nM HIF-2α HIS TAG-PASB Domain
Procedure, shortened: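 IC50 values rest on percent inhibition, where the sample signal is scaled between high and low controls. Wells contain about 100 μL: compound dispensed as 2 μL of DMSO solution, 88 μL protein-probe mix and 10 μL of beads.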

[2] = 24 h, 786-O-Hif-Luc cells, about 24 hours
[3] = Homo sapiens, 786-0, 786-0 cells, VEGFA concentration in cell culture medium, read-out: VEGF ELISA EC50
[4] = 150 nM Compound 211 probe, read-out: SPA IC50
[5] = 786-0 cells, VEGFA concentration in cell culture medium, read-out: VEGF ELISA EC50
[6] = 786-O-Hif-Luc cells, about 24 hours
[7] = Homo sapiens, 786-0, read-out: VEGF ELISA EC50
[8] = SPA IC50, 150 nM Compound 211 probe

T1 sequence (Q99814 240-350 limits assumed): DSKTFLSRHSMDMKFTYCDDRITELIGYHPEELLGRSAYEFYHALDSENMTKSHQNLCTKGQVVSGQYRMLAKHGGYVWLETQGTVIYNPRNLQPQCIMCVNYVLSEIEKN

Row | EC50 (786-O-Hif-Luc cells; [2]) | EC50 (786-0 cells; [3]) | IC50 [1, 4] | SMILES | also measured
1 | 28 nM | 67 nM | 27 nM | CS(=O)(=NC#N)c1ccc(Oc2cc(F)cc(C#N)c2)c2c1[C@H](O)C(F)(F)C2 (single isomer, unassigned) [Compound 20] | 
2 | 195 nM | 1440 nM | 94 nM | N#Cc1cc(F)cc(Oc2ccc(S(=N)(=O)CF)c3c2CC(F)(F)[C@H]3O)c1 (single isomer, unassigned) [Compound 38] | 
3 |  | 20 nM | < 5 nM | N#Cc1cc(F)cc(Oc2ccc(S(=N)(=O)C(F)(F)F)c3c2CC(F)(F)[C@H]3O)c1 (single isomer, unassigned) [Compound 69] | 
4 |  |  | < 5 nM | N#Cc1cc(F)cc(Oc2ccc(S(=N)(=O)C(F)(F)F)c3c2CC(F)(F)[C@H]3O)c1 (single isomer, unassigned) [Compound 70] | EC50 (786-0 cells; [5]): 19 nM
5 | 12 nM | 17 nM | < 5 nM | CS(=O)(=NC#N)c1ccc(Oc2cc(F)cc(C#N)c2)c2c1[C@H](O)C(F)(F)[C@@H]2F (single isomer, unassigned) [Compound 80] | 
6 |  |  | < 5 nM | CS(=O)(=NC#N)c1ccc(Oc2cc(F)cc(C#N)c2)c2c1[C@H](O)C(F)(F)[C@@H]2F (single isomer, unassigned) [Compound 81] | EC50 (786-0 cells; [5]): 14 nM
7 | 83 nM | 95 nM | 14 nM | CS(=O)(=NC#N)c1ccc(Oc2cncc(C#N)c2)c2c1[C@H](O)C(F)(F)[C@@H]2F (single isomer, unassigned) [Compound 83] | 
8 |  |  | 32 nM | CS(=O)(=NC#N)c1ccc(Oc2cncc(C#N)c2)c2c1[C@H](O)C(F)(F)[C@@H]2F (single isomer, unassigned) [Compound 85] | EC50 (786-O-Hif-Luc cells; [6]): 114 nM; EC50 (786-0 cells; [5]): 190 nM
9 | 69 nM | 90 nM | 29 nM | N=S1(=O)c2ccc(Oc3cc(F)cc(F)c3)c(C(F)F)c2C(O)C1(F)F (single isomer, unassigned) [Compound 162, 4-(Difluoromethyl)-5-(3,5-difluorophenoxy)-2,2-difluoro-3-hydroxy-1-imino-2,3-dihydro-1H-1λ^4-benzo[b]thiophene 1-oxide] | 
10 |  |  |  | O=S(=O)(c1ccc(Oc2cc(F)cc(Cl)c2)c2c1[C@H](O)CC2)C(F)F [Compound 2, (R)-4-(3-chloro-5-fluorophenoxy)-7-((difluoromethyl)sulfonyl)-2,3-dihydro-1H-inden-1-ol] | EC50 (786-0 cells; [7]): 245 nM
11 | 7 nM | 20 nM |  | N#Cc1cc(F)cc(Oc2ccc(S(=O)(=O)CF)c3c2CC(F)(F)[C@H]3O)c1 [Compound 3, (S)-3-((2,2-difluoro-7-((fluoromethyl)sulfonyl)-1-hydroxy-2,3-dihydro-1H-inden-4-yl)oxy)-5-fluorobenzonitrile] | IC50 [1, 8]: < 5 nM
12 |  |  |  | N#Cc1ccc(Oc2cc(F)cc(F)c2)c2c1[C@H](O)C(F)(F)C2 [Compound 4, (S)-7-(3,5-Difluorophenoxy)-2,2-difluoro-3-hydroxy-2,3-dihydro-1H-indene-4-carbonitrile] | EC50 (786-0 cells; [7]): 217 nM
13 | 34 nM | 70 nM | < 5 nM | Cc1cc(C#N)cc(Oc2ccc(S(=O)(=O)CF)c3c2CC(F)(F)[C@H]3O)c1 [Compound 7, (S)-3-((2,2-Difluoro-7-((fluoromethyl)sulfonyl)-1-hydroxy-2,3-dihydro-1H-inden-4-yl)oxy)-5-methylbenzonitrile] | 
14 | 3 nM | 4 nM |  | N#Cc1cc(F)cc(Oc2ccc(S(=O)(=O)C(F)(F)F)c3c2CC(F)(F)[C@H]3O)c1 [Compound 8, (S)-3-((2,2-Difluoro-1-hydroxy-7-((trifluoromethyl)sulfonyl)-2,3-dihydro-1H-inden-4-yl)oxy)-5-fluorobenzonitrile] | IC50 [1, 8]: < 5 nM
15 | 11 nM | 13 nM | < 5 nM | O=S(=O)(c1ccc(Oc2cncc(Cl)c2)c2c1[C@H](O)C(F)(F)C2)C(F)(F)F [Compound 9, (S)-4-((5-Chloropyridin-3-yl)oxy)-2,2-difluoro-7-((trifluoromethyl)sulfonyl)-2,3-dihydro-1H-inden-1-ol] | 
16 | 25 nM | 69 nM | < 5 nM | N#Cc1cncc(Oc2ccc(S(=O)(=O)C(F)(F)F)c3c2C[C@@H](F)[C@H]3O)c1 [Compound 14, 5-(((1S,2R)-2-Fluoro-1-hydroxy-7-((trifluoromethyl)sulfonyl)-2,3-dihydro-1H-inden-4-yl)oxy)nicotinonitrile] | 
17 | 30 nM | 54 nM |  | O=S(=O)(c1ccc(Oc2ccc(F)c3[nH]ncc23)c2c1[C@H](O)C(F)(F)C2)C(F)(F)F [Compound 30, (S)-2,2-difluoro-4-((7-fluoro-1H-indazol-4-yl)oxy)-7-((trifluoromethyl)sulfonyl)-2,3-dihydro-1H-inden-1-ol] | 
18 | 160 nM | 830 nM | 110 nM | N#Cc1cc(Oc2ccc(S(=O)(=O)C(F)(F)F)c3c2CC(F)(F)[C@H]3O)c[n+]([O-])c1 [Compound 31, (S)-3-cyano-5-((2,2-difluoro-1-hydroxy-7-((trifluoromethyl)sulfonyl)-2,3-dihydro-1H-inden-4-yl)oxy)pyridine 1-oxide] | 
19 | 5 nM | 6 nM | < 5 nM | N#Cc1cc(F)cc(Oc2ccc(C(F)(F)F)c3c2CC(F)(F)[C@H]3O)c1 [Compound 37, 3-[(1S)-2,2-Difluoro-1-hydroxy-7-(trifluoromethyl)indan-4-yl]oxy-5-fluoro-benzonitrile] | 
20 |  |  |  | N#Cc1cc(F)cc(Oc2ccc(S(N)(=O)=O)c3c2[C@@H](F)C(F)(F)[C@H]3O)c1 [Compound 102, (1R,3S)-7-(3-cyano-5-fluoro-phenoxy)-1,2,2-trifluoro-3-hydroxy-indane-4-sulfonamide] | EC50 (786-O-Hif-Luc cells; 24 h): 6 nM; EC50 (786-0 cells; [7]): 11 nM
21 |  |  |  | O=S1(=O)c2ccc(Oc3cc(F)cc(Cl)c3)c(Br)c2C(O)C1(F)F (stereo not shown) [Compound 119, 4-Bromo-5-(3-chloro-5-fluorophenoxy)-2,2-difluoro-3-hydroxy-2,3-dihydrobenzo[b]thiophene 1,1-dioxide] | EC50 (786-O-Hif-Luc cells; [6]): 46 nM; EC50 (786-0 cells; Homo sapiens, 786-0 cells, VEGFA concentration in cell culture medium, read-out: VEGF ELISA EC50): 64 nM
22 | 308 nM |  | 72 nM | N#Cc1cc(Oc2ccc3c(c2C(F)F)[C@@H](O)C(F)(F)S3(=O)=O)ccc1F [Compound 201, (R)-5-((4-(Difluoromethyl)-2,2-difluoro-3-hydroxy-1,1-dioxido-2,3-dihydrobenzo[b]thiophen-5-yl)oxy)-2-fluorobenzonitrile] | 
23 | 1160 nM |  | 1890 nM | O=S1(=O)c2ccc(OCC3CC3)c(C(F)F)c2[C@@H](O)C1(F)F [Compound 203, (R)-5-(Cyclopropylmethoxy)-4-(difluoromethyl)-2,2-difluoro-3-hydroxy-2,3-dihydrobenzo[b]thiophene 1,1-dioxide] | 
24 | 455 nM |  | 11 nM | O=S1(=O)c2ccc(Oc3cccc4sccc34)c(C(F)F)c2C(O)C1(F)F (stereo not shown) [Compound 204, 5-(Benzo[b]thiophen-4-yloxy)-4-(difluoromethyl)-2,2-difluoro-3-hydroxy-2,3-dihydrobenzo[b]thiophene 1,1-dioxide] | 
25 | 6900 nM |  | 1760 nM | O=S1(=O)c2ccc(Oc3cccc4cn[nH]c34)c(C(F)F)c2C(O)C1(F)F (stereo not shown) [Compound 205, 5-((1H-Indazol-7-yl)oxy)-4-(difluoromethyl)-2,2-difluoro-3-hydroxy-2,3-dihydrobenzo[b]thiophene 1,1-dioxide] | 
26 | 771 nM |  | 200 nM | CC1(O)c2c(ccc(Oc3cc(F)cc(C#N)c3)c2C(F)F)S(=O)(=O)C1(F)F (stereo not shown) [Compound 206, 3-((4-(Difluoromethyl)-2,2-difluoro-3-hydroxy-3-methyl-1,1-dioxido-2,3-dihydrobenzo[b]thiophen-5-yl)oxy)-5-fluorobenzonitrile] | 
27 | 427 nM |  | 46 nM | N#Cc1c(Oc2cc(F)cc(F)c2)ccc2c1C(O)C(F)(F)S2(=O)=O (stereo not shown) [Compound 207, 5-(3,5-Difluorophenoxy)-2,2-difluoro-3-hydroxy-2,3-dihydrobenzo[b]thiophene-4-carbonitrile 1,1-dioxide] | 
28 | 296 nM |  | 83 nM | CC1(O)c2c(ccc(Oc3cc(F)cc(F)c3)c2Br)S(=O)(=O)C1(F)F (stereo not shown) [Compound 208, 4-Bromo-5-(3,5-difluorophenoxy)-2,2-difluoro-3-hydroxy-3-methyl-2,3-dihydrobenzo[b]thiophene 1,1-dioxide] | 

Row | SMILES | EC50 (786-O-Hif-Luc cells; [2]) | EC50 (786-0 cells; [3]) | IC50 [1, 4] | also measured
29 | CS(=O)(=O)c1ccc(Oc2cc(F)cc(C#N)c2)c2c1[C@H](O)C(F)(F)[C@@H]2F [Compound 56, 3-fluoro-5-[(1S,3R)-2,2,3-trifluoro-1-hydroxy-7-methylsulfonyl-indan-4-yl]oxy-benzonitrile] |  |  | < 5 nM | EC50 (786-O-Hif-Luc cells; 24 h): 3 nM; EC50 (786-0 cells; [7]): 6 nM
